Data taken from ChEMBL document CHEMBL1123675, “2,4-Diamino-5-benzylpyrimidines as antibacterial agents. 7. Analysis of the effect of 3,5-dialkyl substituent size and shape on binding to four different dihydrofolate reductase enzymes” (J Med Chem, 1987).

What was measured:
Dihydrofolate reductase [1] = molecular target: Dihydrofolate reductase (Neisseria gonorrhoeae, UniProt P04174); assay: Inhibitory activity against dihydrofolate reductase (DHFR) of Neisseria gonorrhoea; details: read-out: I50
[2] = molecular target: Bifunctional dihydrofolate reductase-thymidylate synthase (Plasmodium berghei str. ANKA, UniProt Q27713); assay: Inhibitory activity against dihydrofolate reductase (DHFR) of Plasmodium berghei; details: read-out: I50
Dihydrofolate reductase [3] = molecular target: T1, Dihydrofolate reductase (Rattus norvegicus, UniProt Q920D2); assay: Inhibitory activity against dihydrofolate reductase (DHFR) from rat liver; details: read-out: I50
T1 sequence (Q920D2 whole entry): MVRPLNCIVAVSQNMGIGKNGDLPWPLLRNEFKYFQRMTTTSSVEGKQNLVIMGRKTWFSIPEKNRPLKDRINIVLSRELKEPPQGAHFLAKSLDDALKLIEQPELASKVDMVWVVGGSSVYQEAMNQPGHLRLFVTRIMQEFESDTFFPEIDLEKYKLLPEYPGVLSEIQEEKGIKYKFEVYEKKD

[4] = molecular target: T2, Dihydrofolate reductase (Rattus norvegicus) (UniProt Q920D2); assay: Inhibitory activity against dihydrofolate reductase (DHFR) of Rat liver at a concentration 2 x 10 E -5 M
T2 sequence (whole entry): T1 sequence (Q920D2 whole entry)

[5] = molecular target: T2, Dihydrofolate reductase (Rattus norvegicus); assay: Inhibitory activity against dihydrofolate reductase (DHFR) of Rat liver at a concentration 10 E -6 M

Bifunctional dihydrofolate reductase-thymidylate synthase, sequence (Q27713 whole entry): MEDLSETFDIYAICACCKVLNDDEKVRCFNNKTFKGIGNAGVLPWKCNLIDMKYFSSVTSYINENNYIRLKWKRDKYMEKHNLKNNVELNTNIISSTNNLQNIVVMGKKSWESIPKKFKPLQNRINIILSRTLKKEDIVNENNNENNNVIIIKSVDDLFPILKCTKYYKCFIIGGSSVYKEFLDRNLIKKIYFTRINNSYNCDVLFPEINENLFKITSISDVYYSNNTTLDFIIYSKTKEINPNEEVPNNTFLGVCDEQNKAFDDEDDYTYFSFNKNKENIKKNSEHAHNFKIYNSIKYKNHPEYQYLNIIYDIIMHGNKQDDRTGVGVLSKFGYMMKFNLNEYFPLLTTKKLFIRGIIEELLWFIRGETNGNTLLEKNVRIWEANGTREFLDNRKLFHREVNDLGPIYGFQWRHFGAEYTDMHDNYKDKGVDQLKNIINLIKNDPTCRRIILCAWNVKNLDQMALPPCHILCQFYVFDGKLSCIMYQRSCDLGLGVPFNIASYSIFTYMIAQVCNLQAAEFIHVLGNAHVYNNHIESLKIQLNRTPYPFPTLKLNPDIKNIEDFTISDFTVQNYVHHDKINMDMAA
Dihydrofolate reductase (Neisseria gonorrhoeae, UniProt P04174), sequence (P04174 whole entry): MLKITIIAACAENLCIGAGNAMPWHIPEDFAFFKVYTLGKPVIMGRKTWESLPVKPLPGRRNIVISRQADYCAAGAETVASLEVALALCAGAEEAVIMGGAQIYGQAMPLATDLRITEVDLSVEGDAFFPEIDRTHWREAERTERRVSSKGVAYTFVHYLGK

Row | IC50 (Dihydrofolate reductase [1]) [nM] | IC50 [2] [nM] | IC50 (Dihydrofolate reductase [3]) [nM] | Inhibition [4] [%] | Inhibition [5] [%] | SMILES
1 | 28 | 31 | 16000 | – | – | COc1c(I)cc(Cc2cnc(N)nc2N)cc1I
2 | 137 | – | 34000 | – | – | CC(C)c1cc(Cc2cnc(N)nc2N)cc(C(C)C)c1N
3 | 61 | 140 | 34500 | – | – | CC(C)(C)c1cc(Cc2cnc(N)nc2N)cc(C(C)(C)C)c1O
4 | 155 | 12.1 | 58000 | – | – | CCc1cc(Cc2cnc(N)nc2N)cc(CC)c1OC
5 | 45 | – | 120000 | – | – | CCc1cc(Cc2cnc(N)nc2N)cc(CC)c1OCCO
6 | 330 | – | – | – | – | COc1cc(Cc2cnc(N)nc2N)cc(OC)c1O [4-HYDROXYTRIMETHOPRIM]
7 | 319 | 42 | – | 0 | – | CCCCC(CC)COc1c(CC)cc(Cc2cnc(N)nc2N)cc1CC (centres undefined)
8 | – | – | – | – | 0 | CCOc1c(C)c(C)c(Cc2cnc(N)nc2N)c(C)c1C
9 | 390 | – | 370000 | – | – | Cc1cc(Cc2cnc(N)nc2N)cc(C(C)(C)C)c1N
10 | 220 | 7.5 | 30000 | – | – | CCOc1cc(Cc2cnc(N)nc2N)cc(OCC)c1OCC
11 | 132 | 5.8 | 15000 | – | – | CCCCOc1c(CCC)cc(Cc2cnc(N)nc2N)cc1CCC
12 | 58 | 13 | 31000 | – | – | COc1c(C(C)(C)C)cc(Cc2cnc(N)nc2N)cc1C(C)(C)C
13 | – | – | 470000 | – | – | COc1cc(Cc2cnc(N)nc2N)ccc1N
14 | 20 | 5.7 | 2000 | – | – | CCCc1cc(Cc2cnc(N)nc2N)cc(CCC)c1O
15 | 49 | 15 | 4450 | – | – | CCCc1cc(Cc2cnc(N)nc2N)cc(CC)c1O
16 | 260 | – | – | – | – | Cc1cc(Cc2cnc(N)nc2N)cc(C(C)C)c1N
17 | 29 | 110 | 8900 | – | – | CC(C)c1cc(Cc2cnc(N)nc2N)cc(C(C)C)c1O
18 | 120 | 28 | 16000 | – | – | CCc1cc(Cc2cnc(N)nc2N)cc(CC)c1O
19 | 64 | 10 | 8750 | – | – | CCc1cc(Cc2cnc(N)nc2N)cc(CC)c1OCCCOc1ccccc1
20 | 43 | – | 1580 | – | – | Nc1ncc(Cc2cc(I)c(OCCCOc3ccccc3)c(I)c2)c(N)n1
21 | 3500 | 350 | 64000 | – | – | CCCCCCCCCCCCOc1c(CC)cc(Cc2cnc(N)nc2N)cc1CC

Row | IC50 (Dihydrofolate reductase [1]) [nM] | IC50 [2] [nM] | IC50 (Dihydrofolate reductase [3]) [nM] | Inhibition [4] [%] | Inhibition [5] [%] | SMILES
22 | 259 | – | 120000 | – | – | Cc1cc(Cc2cnc(N)nc2N)cc(C(C)(C)C)c1O
23 | 350 | – | 39000 | – | – | CCc1cc(Cc2cnc(N)nc2N)cc(C)c1O
24 | 318 | – | 130000 | – | – | Nc1ncc(Cc2cc(Cl)c(N)c(Cl)c2)c(N)n1
25 | 810 | – | 520000 | – | – | COc1cc(Cc2cnc(N)nc2N)cc(OC)c1N
26 | 240 | 77 | 130000 | – | – | COc1c(C)cc(Cc2cnc(N)nc2N)cc1C(C)(C)C
27 | 530 | – | 86000 | – | – | COc1ccc(Cc2cnc(N)nc2N)cc1OC [DIAVERIDINE]
28 | – | – | 160000 | – | – | Cc1cc(Cc2cnc(N)nc2N)cc(Cl)c1N
29 | – | – | 35000 | – | – | COc1cc(Cc2cnc(N)nc2N)ccc1O
30 | 500 | 120 | 250000 | – | – | COc1c(C)cc(Cc2cnc(N)nc2N)cc1C
31 | 107 | – | 38000 | – | – | CCc1cc(Cc2cnc(N)nc2N)cc(CC)c1N
32 | 485 | – | 380000 | – | – | Cc1cc(Cc2cnc(N)nc2N)cc(C)c1N
33 | 60 | 20 | 21000 | – | – | CCCc1cc(Cc2cnc(N)nc2N)cc(CCC)c1OC
34 | 28 | 53 | 9900 | – | – | Nc1ncc(Cc2cc(I)c(O)c(I)c2)c(N)n1
35 | 44 | 10 | 32000 | – | – | CCCc1cc(Cc2cnc(N)nc2N)cc(CC)c1OC
36 | 75 | – | 27000 | – | – | CCc1cc(Cc2cnc(N)nc2N)cc(C(C)CC)c1N (centres undefined)
37 | 93 | – | 57000 | – | – | Nc1ncc(Cc2cc(Br)c(N)c(Br)c2)c(N)n1
38 | 356 | 35 | 52000 | – | – | CCOc1c(CC)cc(Cc2cnc(N)nc2N)cc1CC
39 | 310 | 120 | 83000 | – | – | CCc1cc(Cc2cnc(N)nc2N)cc(C)c1OC
40 | 63 | 23 | 13000 | – | – | COc1c(C(C)C)cc(Cc2cnc(N)nc2N)cc1C(C)C
41 | 526 | – | 71000 | – | – | Cc1cc(Cc2cnc(N)nc2N)cc(C)c1O
42 | 560 | – | 144000 | – | – | CCc1cc(Cc2cnc(N)nc2N)cc(C)c1N
